# Measurements from patent publication US12297184B2 (Tesaro, Inc., priority 2018, dated 2025).
# Tests used:
# [1] = Hygroscopicity by gravimetric (GVS) or dynamic (DVS) vapour sorption; assay type: physicochemical; conditions: for % Mass increase: at 90% RH, 25° C., GVS (camphorates, camsylate), DVS (mandelate); for Hygroscopicity (in words): from % mass increase at 90% RH
# Method: Typically, approximately 10-20 mg of sample was placed into a mesh vapour sorption balance pan and loaded into an IGASorp Moisture Sorption Analyser balance by Hiden Analytical. The sample was subjected to a ramping profile from 40-90% relative humidity (RH) at 10% increments, maintaining the sample at each step until a stable weight had been achieved (98% step completion, minimum step length 30 minutes, maximum step length 60 minutes) at 25° C. After completion of the sorption cycle, the sample was dried using the same procedure to 0% RH, and finally taken back to the starting point of 40% RH. Two cycles were performed. The weight change during the sorption/desorption cycles were plotted, allowing for the hygroscopic nature of the sample to be determined.
# Typically, approximately 10 mg of sample was placed into a mesh vapor sorption balance pan and loaded into a DVS-1/DVS Intrinsic/DVS Advantage dynamic vapor sorption balance by Surface Measurement Systems. The sample was subjected to a ramping profile from 40-90% relative humidity (RH) at 10% increments, maintaining the sample at each step until a stable weight had been achieved (dm/dt 0.004%, minimum step length 30 min, maximum step length 500 min) at 25° C. After completion of the sorption cycle, the sample was dried using the same procedure to 0% RH and then a second sorption cycle back to 40% RH. Two cycles were performed. The weight change during the sorption/desorption cycles were plotted, allowing for the hygroscopic nature of the sample to be determined.
# GVS was performed on the crystalline solids produced in Examples land 3. DVS was performed on the crystalline solids produced in Example 2. Table 6 below summarizes the % mass increase observed at 90% RH for the samples.
# [2] = for Solubility Water / Solubility pH 1 / Solubility pH 4.5 / Solubility pH 6.8: 24 h
# Method: (§1) In an initial procedure (performed in triplicate), the salts were added in small aliquots to deionised water or to buffer solutions (10 mL) until saturation was achieved (˜20 mg was initially added), and the resulting slurry was shaken at 37° C. for 24 h. The following buffers (50 mM in each case) were used: • pH 1 25 mL KCl solution (1.49 g dissolved in 100 mL water) and 42.5 mL HCl solution (1.66 mL of concentrated HCl (˜37%) made up to 100 mL with water) were added together and made up to 100 mL with water; • pH 4.5 anhydrous sodium acetate (1.07 g) was dissolved in water (about 150 mL) before adding 5.9 mL acetic acid solution (11.6 mL glacial acetic acid made up to 100 mL with water). The resulting solution was made up to 500 mL with water; and • pH 6.8 25 mL of KH2PO4 solution (2.72 g dissolved in about 80 mL water and made up to 100 mL with water) and 11.2 mL of NaOH solution (800 mg of sodium hydroxide was dissolved and diluted to 100 mL with water) were added together and made up to 100 mL with water.
# (§2) Any solids which were isolated by filtration were assessed by XRPD to determine whether the form of the material had changed.
# (§3) The solubility assessment of these samples was repeated using the following procedure (samples prepared in triplicate):
# (§4) The appropriate salt (30 mg) was weighed into a vial and water or buffer solution (1 mL) was added. The samples were shaken at 37° C. for 24 h. After 1 h and after about 17 h, further salt was added to the mandelate samples (except those in pH 1 buffer solution) to give an approximate 50-60 mg of solids. […] The samples were analysed as described above.
# PARP activity = conditions: read-out: inhibition of PARP activity EC50; whole cell assay; cited from earlier work
# [3] = tested on: cancer cells having mutant BRCA1 and BRCA2; conditions: read-out: inhibition of proliferation CC50; cited from earlier work
# physchem = conditions: 37 °C, thermodynamic from solid
# Method: as §1, §2, §3, §4
# [4] = drug substance; cited from earlier work
Compound,% Mass increase [1] [%],Solubility Water [2] [µg/mL],Solubility pH 1 [2] [mg/mL],Solubility pH 4.5 [2] [mg/mL],Solubility pH 6.8 [2] [mg/mL],Hygroscopicity (in words) [1],other results
"NC(=O)c1cccc2cn(-c3ccc(C4CCCNC4)cc3)nc12 [(+)-Camphorate, 2-{4-[(3S)-piperidin-3-yl]phenyl}-2H-indazole-7-carboxamide (niraparib) (1R,3S)-(+)-camphorate]",~0.3,200,21.4,0.3,1.2,,
"NC(=O)c1cccc2cn(-c3ccc(C4CCCNC4)cc3)nc12 [(−)-Camphorate, 2-{4-[(3S)-piperidin-3-yl]phenyl}-2H-indazole-7-carboxamide (niraparib) (1S,3R)-(−)-camphorate]",~0.2,,,,,,
"NC(=O)c1cccc2cn(-c3ccc([C@@H]4CCCNC4)cc3)nc12 [Niraparib, 2-{4-[(3S)-piperidin-3-yl]phenyl}-2H-indazole-7-carboxamide]",,,,,,,EC50 (PARP activity): 4 nM; CC50 [3]: 10 to 100 nM
"NC(=O)c1cccc2cn(-c3ccc([C@@H]4CCCNC4)cc3)nc12 [Tosylate, 2-{4-[(3S)-piperidin-3-yl]phenyl}-2H-indazole-7-carboxamide 4-methylbenzenesulfonate hydrate 1:1:1]",,,,,,,"solubility at 24 h (physchem; pH 1, simulated gastric fluid, Solubility pH 1): 900 µg/mL; solubility at 24 h (physchem; pH 6.8, aqueous buffer, Solubility pH 6.8): 900 µg/mL; solubility at 24 h (physchem; water, Solubility Water): 500 µg/mL; Aqueous solubility (background statement) [4]: low aqueous solubility; Hygroscopicity (background statement) [4]: non-hygroscopic"
camphorate,,,,,,not hygroscopic,"Solubility (in words, reading of Table 8) ([2]; comparison with tosylate salt, especially in low pH media): greater solubility than the tosylate salt"

# Continued, in another order:
% Mass increase [1] [%],Solubility Water [2] [µg/mL],Solubility pH 1 [2] [mg/mL],Solubility pH 4.5 [2] [mg/mL],Solubility pH 6.8 [2] [mg/mL],Hygroscopicity (in words) [1],Compound,other results
~1.3,5900,11.5,7.1,1.7,slightly hygroscopic,"NC(=O)c1cccc2cn(-c3ccc(C4CCCNC4)cc3)nc12 [Camsylate, 2-{4-[(3S)-piperidin-3-yl]phenyl}-2H-indazole-7-carboxamide (niraparib) (1S)-(+)-camsylate]",
~0.07,45400,163.1,53.8,7.8,not hygroscopic,"NC(=O)c1cccc2cn(-c3ccc(C4CCCNC4)cc3)nc12 [Mandelate, 2-{4-[(3S)-piperidin-3-yl]phenyl}-2H-indazole-7-carboxamide (niraparib) (R)-(−)-mandelate]",
